Among the data in PubChem BioAssay (NCI) are TGI and GI50 values, retold here.

SMILES strings stand for the structures. “And” between values parts separate entries of the source, which are not always exact repeats. Equal entries are not always repeated.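 Following 48 hours of exposure in 96-well plates, responses at five concentrations were used to interpolate endpoints linearly. GI50 marks 50% less growth. TGI marks complete inhibition of growth.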 Some results are limits rather than exact numbers.

Among the test systems are COLO 205 colon; HCT-15 colon; HL-60(TB) leukemia; IGROV1 ovarian; M19-MEL melanoma; NCI-H23 lung; NCI-H460 lung; UACC-257 melanoma; XF 498 CNS; MCF7 breast.
What all share (test): growth of human tumour cells (NCI), 48 h

As for `COC(=O)C1CCC(=O)N1/C(C)=N/NC(=O)Nc1ccc(Cl)c(Cl)c1` (stereo not drawn), the TGI was over 100 µM in the experiment on COLO 205 colon; 68.7 µM in the experiment on HCT-15 colon; over 100 µM with HL-60(TB) leukemia; over 100 µM in the experiment with IGROV1 ovarian; over 100 µM in the experiment with M19-MEL melanoma; over 100 µM with NCI-H23 lung. For the same compound, the TGI in the experiment on NCI-H460 lung, in the experiment on UACC-257 melanoma and in the experiment on XF 498 CNS was over 100 µM throughout.

With `O=NN(CCCl)C(=O)NC1CCCCC1`, the GI50 with COLO 205 colon is 20.3 µM and 57.1 µM; with HCT-15 colon, 16.8 µM and 54.7 µM; in the experiment with HL-60(TB) leukemia, 41.5 µM and 41 µM; with IGROV1 ovarian, 19.7 µM and 73.2 µM; in the experiment with M19-MEL melanoma, 27.4 µM and 60.2 µM; in the experiment on NCI-H23 lung it was 116 µM. Moreover, the GI50 in the experiment with NCI-H460 lung was 24.1 µM and 67.7 µM; with UACC-257 melanoma, 23.7 µM; in the experiment with XF 498 CNS it was 18 µM and 82 µM. Further, the TGI with COLO 205 colon is 36.7 µM and 102 µM and 87.8 µM; with HCT-15 colon it was 33.5 µM and 103 µM and 115 µM; with HL-60(TB) leukemia, 69.9 µM and > 80.6 µM and 83.8 µM; in the experiment on IGROV1 ovarian it was 57.4 µM and 150 µM and 162 µM; with M19-MEL melanoma it was 81.5 µM and 123 µM and 163 µM; in the experiment on MCF7 breast, 117 µM. Further, the TGI in the experiment on NCI-H23 lung was 152 µM and 235 µM; with NCI-H460 lung it was 69.2 µM and 124 µM and 187 µM; in the experiment with UACC-257 melanoma, 73.8 µM and 127 µM and 82.4 µM; in the experiment on XF 498 CNS, 36.4 µM and 128 µM and 114 µM.

For the compound `COC(=O)CC1CC2(C(=O)OC)c3[nH]c4ccccc4c3CCN2C1=O` (stereo not drawn), the TGI in the experiment with COLO 205 colon, in the experiment with HCT-15 colon, in the experiment with HL-60(TB) leukemia, in the experiment with IGROV1 ovarian, in the experiment with M19-MEL melanoma and with NCI-H23 lung was over 100 µM each time. In addition, the TGI with NCI-H460 lung, in the experiment with UACC-257 melanoma and in the experiment with XF 498 CNS was over 100 µM in each case.

For the compound `CN(C)c1ccc(N=C2C=CC(=C(C#N)C#N)c3ccccc32)cc1`, the TGI in the experiment with COLO 205 colon came out at 0.199 µM; in the experiment with HCT-15 colon, 4.72 µM; in the experiment on HL-60(TB) leukemia it was 0.391 µM; with IGROV1 ovarian, 6.11 µM; in the experiment on M19-MEL melanoma, 5.8 µM; in the experiment with MCF7 breast it was 7.51 µM. Besides, the TGI in the experiment with NCI-H23 lung worked out at 4.19 µM; in the experiment on NCI-H460 lung, 7.08 µM; in the experiment on UACC-257 melanoma, 10.9 µM; in the experiment on XF 498 CNS, 1.65 µM.

As for `Nc1nc(=S)c2[nH]cnc2[nH]1`, the GI50 is 0.998 µM and 2.35 µM and 2.52 µM with COLO 205 colon; 0.515 µM and 2.51 µM and 1.7 µM in the experiment on HCT-15 colon; 0.894 µM in the experiment on HL-60(TB) leukemia; 3.23 µM and 6.02 µM in the experiment with IGROV1 ovarian; 0.325 µM and 0.547 µM and 1.02 µM in the experiment with MCF7 breast; 0.481 µM and 3.07 µM with NCI-H23 lung. Moreover, the GI50 is 0.332 µM and 0.989 µM with NCI-H460 lung; 0.708 µM and 5.94 µM in the experiment on UACC-257 melanoma. The TGI is 5.68 µM [middle of 4 runs] in the experiment on COLO 205 colon; > 100 µM and 51.6 µM and 38.9 µM in the experiment on HCT-15 colon; 9.38 µM and 17.5 µM and 2.37 µM in the experiment with HL-60(TB) leukemia; > 96.1 µM and 150 µM and 162 µM in the experiment on IGROV1 ovarian; 205 µM in the experiment with M19-MEL melanoma; 7 µM and 16.8 µM and 19.8 µM in the experiment with NCI-H460 lung. Besides, the TGI was > 70.3 µM and 110 µM and > 250 µM with UACC-257 melanoma; 8.35 µM with XF 498 CNS.

As for `N#CCCN(CCC#N)c1ccc(C=Nc2ccc(F)cc2)cc1`, the TGI in the experiment on COLO 205 colon was 70.3 µM; in the experiment on HCT-15 colon, over 100 µM; in the experiment on HL-60(TB) leukemia, over 100 µM; in the experiment with IGROV1 ovarian, over 100 µM; in the experiment with M19-MEL melanoma, over 44.5 µM; in the experiment on MCF7 breast it was over 100 µM. Also, the TGI with NCI-H23 lung, in the experiment with NCI-H460 lung, in the experiment on UACC-257 melanoma and in the experiment on XF 498 CNS was over 100 µM each time.

With `O=CC1=CCC2c3[nH]c4ccccc4c3CCN2C1` (stereo not drawn), the TGI was over 396 µM with COLO 205 colon; 156 µM in the experiment with HCT-15 colon; over 396 µM with HL-60(TB) leukemia; over 396 µM with IGROV1 ovarian; 206 µM in the experiment on M19-MEL melanoma; 320 µM with NCI-H23 lung. Moreover, the values for the TGI with NCI-H460 lung, in the experiment on UACC-257 melanoma and in the experiment with XF 498 CNS were over 396 µM, 347 µM and 213 µM, respectively.

In the case of `CC1=CCN(c2ccccn2)OC1c1ccccc1` (stereo not drawn), the TGI in the experiment with COLO 205 colon, with HCT-15 colon, with HL-60(TB) leukemia, in the experiment with IGROV1 ovarian, in the experiment with M19-MEL melanoma and with NCI-H23 lung was over 100 µM throughout. Further, the TGI in the experiment with NCI-H460 lung, with UACC-257 melanoma and with XF 498 CNS was over 100 µM throughout.

Take `CC(=O)OCC1OC(n2c(=S)n(-c3ccccc3)c(=O)c3cc(Br)cc(Br)c32)C(OC(C)=O)C(OC(C)=O)C1OC(C)=O` (stereo not drawn): the TGI with COLO 205 colon was over 100 µM; in the experiment with HCT-15 colon it was over 100 µM; in the experiment with HL-60(TB) leukemia, over 100 µM; with IGROV1 ovarian, over 100 µM; in the experiment with M19-MEL melanoma it was over 100 µM; in the experiment on NCI-H23 lung, 92.1 µM and > 100 µM. For the same compound, the TGI in the experiment with NCI-H460 lung is over 100 µM; in the experiment on UACC-257 melanoma, over 100 µM; in the experiment with XF 498 CNS it was 69.7 µM and > 100 µM. The GI50 with IGROV1 ovarian was 35.8 µM and > 100 µM; in the experiment on NCI-H23 lung, 19.1 µM and 72.3 µM; in the experiment on UACC-257 melanoma, 46.6 µM and > 100 µM; in the experiment with XF 498 CNS, 17.2 µM and 49.1 µM.

As for `Nc1ccc(C(=O)/C=C/c2ccccc2O)cc1`, the TGI with COLO 205 colon, in the experiment on HCT-15 colon, in the experiment with HL-60(TB) leukemia, with IGROV1 ovarian, in the experiment with M19-MEL melanoma and in the experiment with NCI-H23 lung was over 100 µM in each case. Besides, the TGI in the experiment with NCI-H460 lung, in the experiment with UACC-257 melanoma and with XF 498 CNS was over 100 µM throughout.
